# Source: US4745196A, “Orally active phosphonyl hydroxyacyl prolines” (E. R. Squibb & Sons, Inc., priority 1986, dated 1988)
# Where a name gives a salt, the structure may show the parent alone.
# System: angiotensin converting enzyme (ACE)
# Assay: in vivo attenuation of angiotensin I pressor response after oral administration in conscious, normotensive rats
# Details: maximum during three-hour period, mean of at least four rats
# Experimental: The compounds of formula I were tested in vivo in conscious, normotensive rats. Angiotensin I given intravenously increases blood pressure due to conversion to angiotensin II via the angiotensin converting enzyme (ACE). ACE inhibition was reflected by the attenuation of an angiotensin I pressor response after compound administration. The in vivo testing procedure is described in greater detail by Rubin et al., "SQ14,225 (D-3-Mercapto-2-Methylpropanoyl-L-Proline), A Novel Orally Active Inhibitor Of Angiotensin I Converting Enzyme", J. Pharm. Exp. Therap., Vol. 204, p 271-280 (1978).
# The inhibition of the angiotensin I pressor response is expressed as the percentage of the response to angiotensin I obtained before the test compound was administered, and was measured at regular intervals during a three-hour period following the administration of the test compound. The maximum percentage inhibition observed during this period is given in the table as a number from 0 to 100 percent. All results are the mean values obtained for testing of each compound in at least four rats. For compounds tested at more than one dose, it can be observed that increased amounts of compound administered lead to increased levels of inhibition.
# [1] = oral dose 1.5 (dose unit not given)
# [2] = oral dose 5 (dose unit not given)
# [3] = oral dose 0.5 (dose unit not given), dilithium salt
# [4] = oral dose 1.5 (dose unit not given), dilithium salt
# [5] = oral dose 5 (dose unit not given), dilithium salt
# [6] = oral dose 15 (dose unit not given)
# [7] = oral dose 0.5 (dose unit not given)
SMILES,Maximum Percent Inhibition of the angiotensin I pressor response [1] [%],Maximum Percent Inhibition of the angiotensin I pressor response [2] [%],Maximum Percent Inhibition of the angiotensin I pressor response [3] [%],Maximum Percent Inhibition of the angiotensin I pressor response [4] [%],Maximum Percent Inhibition of the angiotensin I pressor response [5] [%],Maximum Percent Inhibition of the angiotensin I pressor response [6] [%],Maximum Percent Inhibition of the angiotensin I pressor response [7] [%],"Maximum Percent Inhibition of the angiotensin I pressor response (oral dose 15 (dose unit not given), dilithium salt) [%]"
"NCCCC[C@H](OP(=O)(O)CCc1ccccc1)C(=O)N1CCC[C@H]1C(=O)O [Example 1, (S)-1-[6-Amino-2-[[hydroxy(2-phenylethyl)phosphinyl]oxy]-1-oxohexyl]-L-proline, dilithium salt]",50.30,64.50,–,–,–,–,–,–
"NCCCC[C@H](OP(=O)(O)CCCc1ccccc1)C(=O)N1CCC[C@H]1C(=O)O [Example 2, (S)-1-[6-Amino-2-[[hydroxy(3-phenylpropyl)phosphinyl]oxy]-1-oxohexyl]-L-proline]",32.30,66.70,–,–,–,–,–,–
"NCCCC[C@H](OP(=O)(O)CCCCc1ccccc1)C(=O)N1CCC[C@H]1C(=O)O [Example 3, (S)-1-[6-Amino-2-[[hydroxy(4-phenylbutyl)phosphinyl]oxy]-1-oxohexyl]-L-proline, dilithium salt]",–,–,20.90,74.00,91.00,97.10,–,–
"NCCCC[C@H](OP(=O)(O)CCCCc1ccccc1)C(=O)N1CCC[C@H]1C(=O)O [Example 4, (S)-1-[6-Amino-2-[[hydroxy(4-phenylbutyl)phosphinyl]oxy]-1-oxohexyl]-L-proline]",69.00,89.90,–,–,–,–,46.60,–
"NCCCC[C@H](OP(=O)(O)CCCCc1ccc(F)cc1)C(=O)N1CCC[C@H]1C(=O)O [Example 5, (S)-1-[6-Amino-2-[[[4-(4-fluorophenyl)butyl]hydroxyphosphinyl]oxy]-1-oxohexyl]-L-proline]",69.00,80.50,–,–,–,–,22.20,–
"NCCCC[C@H](OP(=O)(O)CCCCCc1ccccc1)C(=O)N1CCC[C@H]1C(=O)O [Example 6, (S)-1-[6-Amino-2-[[hydroxy(5-phenylpentyl)phosphinyl]oxy]-1-oxohexyl]-L-proline]",–,64.70,–,–,–,–,–,–
"CCCCCP(=O)(O)O[C@@H](CCCCN)C(=O)N1CCC[C@H]1C(=O)O [Example 7, 1-[(S)-6-Amino-2-[(hydroxypentylphosphinyl)oxy]-1-oxohexyl]-L-proline]",–,57.20,–,–,–,–,–,–
"CCCCCCP(=O)(O)O[C@@H](CCCCN)C(=O)N1CCC[C@H]1C(=O)O [Example 8, (S)-1-[6-Amino-2-[(hexylhydroxyphosphinyl)oxy]-1-oxohexyl]-L-proline, dilithium salt]",–,–,19.70,72.40,82.70,–,–,85.50
"CCCCCCP(=O)(O)O[C@@H](CCCCN)C(=O)N1CCC[C@H]1C(=O)O [Example 9, (S)-1-[6-Amino-2-[(hexylhydroxyphosphinyl)oxy]-1-oxohexyl]-L-proline]",66.50,82.10,–,–,–,90.30,17.90,–
"CCCCCCCP(=O)(O)O[C@@H](CCCCN)C(=O)N1CCC[C@H]1C(=O)O [Example 10, 1-[(S)-6-Amino-2-[(heptylhydroxyphosphinyl)oxy]-1-oxohexyl]-L-proline]",66.00,75.00,–,–,–,–,45.00,–
"CCCCCCCCP(=O)(O)O[C@@H](CCCCN)C(=O)N1CCC[C@H]1C(=O)O [Example 12, (S)-1-[6-Amino-2-[(octylhydroxyphosphinyl)oxy]-1-oxohexyl]-L-proline, dilithium salt]",51.10,82.60,–,–,–,93.60,16.80,–
